Test results from paper PMC3609778, “Truncated and Helix-Constrained Peptides with High Affinity and Specificity for the cFos Coiled-Coil of AP-1” (PLoS ONE, 2013).
“Also recorded” adds a separate entry of the source. Where a SMILES comes first, the peptide text is derived from it. Bridges are numbered along the chain shown (N, C = ends). [ ]: non-standard residue; d: D form. Cha = N[C@@H](CC1CCCCC1)C(=O)O

What was measured:
circular dichroism = conditions: 10 mM K phosphate, 100 mM KF; pH 7; 20 °C; 150 uM
cJun = experiment: CD spectra and thermal denaturation of peptide-cJun mixtures (specificity); type: binding; conditions: equimolar with cJun
Procedure: (§1) To establish if the truncated and constrained peptides retained the interaction specificity of the JunWCANDI parent peptide, peptides capable of interacting with cFos were also incubated at equimolar concentrations with cJun and monitored via CD spectra. […] In addition, a dimer exchange experiment was performed for the most helical peptide 24. Spectra for a cJun-peptide solution and a cFos solution should, upon mixing, generate an averaged spectrum if there was no dimer exchange. […] Spectra for both mixtures can be superimposed (Figure S4).
Supplementary file pone.0059415.s002.tiff: Figure S2 Raw thermal melting data for homo and heterodimeric complexes with cJun for constrained peptides 1 , 2 , 8 , 9, 10 , 11, 12, 17, 20, 22, and 24 . […] (TIFF) Click here for additional data file.
Supplementary file pone.0059415.s003.tiff: Figure S3 CD spectra as MRE both in isolation and as a mixture with cJun. From these raw data it is also clear that no interaction is occurring between constrained peptides and cJun. Rather, specta appear as averages of their homodimeric components (i.e. superimpose with the homomeric averages). We observe no heteromeric helical signal (red) that exceeds the average (black dotted line) of cJun (black) and the constrained peptide (blue), that would be anticipated for a non-interacting pair. (TIFF) Click here for additional data file.
Supplementary file pone.0059415.s005.doc: Table S1 Helical Data obtained via Circular Dichroism. Shown are A) homo and B) heteromeric samples. […] A ratio higher than 1 is generally indicated evidence that a coiled coil has formed, while a ratio of less than 0.9 is taken to indicate the presence of isolated helices. Shown in column two are the calculated fractional helicities taken from the Molar Residue Ellipticity at […]. Fraction helicity (ƒH) can be calculated as ƒH = (θ222−θc)/(θ222∞−θc) where θ222∞ = (−44000+250*T)*(1−k/Nr) and θc = 2220–(53*T). […] Measured helicity for the original JunWCANDI peptide and for the template on which the hydrocarbon constraints have been introduced. […]

cFos [1] = target: T1, cFos (Homo sapiens, UniProt P01100); experiment: Circular dichroism spectra of peptide-cFos mixtures; type: binding; conditions: mixture with cFos; for Peptide-cFos Ɵ222/208 (20ºC): CD ratio, 20 °C; for Peptide-cFos Fraction helical (ƒH): CD 222 nm, 20°C, 150 µM total peptide
Procedure: (§2) Circular dichroism (CD) spectroscopy was conducted with an Applied Photophysics Chirascan CD spectroploarimeter (Leatherhead, U.K.) using a 200 µL sample in a CD cell with a 1 mm path length (Hellma, Müllheim Germany). Samples contained 150 µM total peptide concentration suspended in 10 mM potassium phosphate and 100 mM potassium fluoride at pH 7. The CD spectra of the homodimeric and heterodimeric complexes were scanned between 300 nm and 190 nm at 20°C (for both pre- and post-melt samples to check for reversibility of unfolding) and at −8°C to assess helical levels and coiled-coil structure (see Figure 4).
Thermal denaturation data and spectra for the cFos homotypic complex (black), helix constrained peptide (blue), and heteromeric complex (red) were recorded using 200 µL of sample at 150µM total peptide concentration (Figure 4, Figure S1). Next, 100 µL of each solution was mixed and the spectra taken such that the final total peptide concentration was also 150 µM. More experimental procedures can be found in File S1.
(§3) Supplementary file pone.0059415.s005.doc: Table S1 Helical Data obtained via Circular Dichroism. Shown are A) homo and B) heteromeric samples. […] A ratio higher than 1 is generally indicated evidence that a coiled coil has formed, while a ratio of less than 0.9 is taken to indicate the presence of isolated helices. Shown in column two are the calculated fractional helicities taken from the Molar Residue Ellipticity at […]. Fraction helicity (ƒH) can be calculated as ƒH = (θ222−θc)/(θ222∞−θc) where θ222∞ = (−44000+250*T)*(1−k/Nr) and θc = 2220–(53*T). In these equations the wavelength dependent constant k = 2.4 (at 222 nm), Nr = the number of residues, and T = 20 degrees Celsius (293 K). The 222/208 ratio is used to provide evidence on whether the helices are monomeric or are adopting a quaternary structure. Measured helicity for the original JunWCANDI peptide and for the template on which the hydrocarbon constraints have been introduced. […] The N- and C-capping motifs have been removed for the constrained since they are considered to be largely redundant upon their introduction. (DOC) Click here for additional data file.

[2] = Circular dichroism helicity of peptide in isolation (homotypic); type: physicochemical; conditions: for Homotypic Ɵ222/208 (20ºC): CD ratio, 20 °C; for Homotypic Ɵ222/208 (20ºC) / Fraction helical (ƒH), homotypic: peptide in isolation; for Fraction helical (ƒH), homotypic: from CD molar residue ellipticity at 222 nm
Procedure: as §2, §3

cFos [3] = target: T1, cFos; experiment: Dimer exchange experiments between cJun, cFos and constrained peptide (CD spectra); type: binding; conditions: equimolar mixtures, CD spectra compared with average of constituent spectra
Procedure: as §1
(TIFF) Click here for additional data file.

Serum stability = type: in vitro ADME; conditions: 200 µL of 1 mg/ml peptide in water added to 800 µL human serum, 37°C, aliquots 0-24 h, acetonitrile/water 3:1, LC-MS-MS total ion counts
Procedure: Stock solutions of 12 and 24 in both constrained forms and linear forms lacking constraints were prepared in water (1 mg/ml), 200 µL was added to human serum (800 µL) and incubated at 37°C. Aliquots (100 µL) of this diluted serum were removed at 0, 0.5, 1, 2, 4, 16, and 24 hours and a mixture of acetonitrile/water 3∶1 (300 µL) was added to each aliquot before centrifuging (17000 rpm, 15 min). Aliquots (100 µL) of the supernatant were then analysed by LC-MS-MS after passing through a 2.1×150 mm Phenomenex 300A C18 5 µm column at 10% per minute linear gradient from 0–100% acetonitrile over 12 minutes. The amount of starting material was quantified by determination of total ion counts for the m/3+ and m/4+ ion for each peptide (Figure 3).

cFos [4] = target: T1, cFos; experiment: Isothermal Titration Calorimetry (ITC) of peptides with cFos; type: binding; conditions: 20°C
Procedure: Figure 5 Isothermal Titration Calorimetry (ITC) analysis of leucine zipper domain interactions between constrained peptides and cFos. Shown are isotherms for all ten measureable heterodimers (1, 2, 8, 10, 11, 12, 17, 20, 22, and 24) injected into a cell containinginto cFos. The top and bottom panels show, respectively, raw data after baseline correction. During ITC experiments, approximately 200–600 µM of peptide A was injected in 30–40×5 µl batches from the injection syringe into the cell, which contained 10–40 µM cFos. Both partners were in a 10 mM Potassium Phosphate buffer, 100 mM Potassium Fluoride at pH 7. Experiments were undertaken at 20°C. […]
ITC Measurements - ITC measurements were made using a Microcal VP-ITC instrument with data collected and processed using the Origin 7.0 software package. […] The change in thermal power as a function of each injection was automatically recorded using the Microcal Origin software and the raw data were integrated to yield ITC isotherms of heat release per injection as a function of Fos to Jun Molar ratio (Figure 5). […]
where R is the universal molar gas constant (1.9872 cal·K^-1·mol^-1), T is the absolute temperature in Kelvin (293.15 K) and KD is the dissociation constant of binding with units of mol·L^-1. Finally, the entropic contribution (TΔS) to the free energy of binding was calculated using the derived values of ΔH and ΔGbind.

T1 sequence (P01100 whole entry): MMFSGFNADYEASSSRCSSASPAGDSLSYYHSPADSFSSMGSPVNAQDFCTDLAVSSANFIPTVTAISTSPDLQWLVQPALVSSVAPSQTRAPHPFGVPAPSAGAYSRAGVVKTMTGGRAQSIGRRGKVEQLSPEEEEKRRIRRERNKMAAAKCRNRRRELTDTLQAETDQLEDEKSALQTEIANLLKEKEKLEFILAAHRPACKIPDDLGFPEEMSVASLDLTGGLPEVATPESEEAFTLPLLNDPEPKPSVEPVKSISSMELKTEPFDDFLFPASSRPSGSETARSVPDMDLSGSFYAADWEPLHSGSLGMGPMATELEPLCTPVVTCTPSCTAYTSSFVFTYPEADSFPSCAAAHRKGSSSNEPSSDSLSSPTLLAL

Row | Peptide-cFos Ɵ222/208 (20ºC) (cFos [1]) | Peptide-cFos Fraction helical (ƒH) (cFos [1]) | Compound | helicity (circular dichroism) | interaction with cJun (in words) (cJun) | Homotypic Ɵ222/208 (20ºC) [2] | Fraction helical (ƒH), homotypic ([2]; 20°C, 150 µM, pH 7) | further results
1 |  |  | CC[C@H](C)[C@H](NC(=O)[C@H](Cc1c[nH]cn1)NC(=O)[C@@H]1CC(=O)NCCCC[C@H](NC(=O)[C@H](C)NC(=O)[C@H](CCCCN)NC(=O)[C@H](CO)NC(=O)[C@H](CCCNC(=N)N)NC(=O)[C@H](CC(C)C)NC(=O)[C@@H]2CC(=O)NCCCC[C@H](NC(=O)[C@H](CCCCN)NC(=O)[C@H](CC(C)C)NC(C)=O)C(=O)N[C@@H](CCC(=O)O)C(=O)N[C@@H](CC(N)=O)C(=O)N[C@@H](Cc3ccc(O)cc3)C(=O)N2)C(=O)N[C@@H](CCSC)C(=O)N[C@@H](CC(C)C)C(=O)N[C@@H](CCCNC(=N)N)C(=O)N1)C(=O)N[C@@H](C)C(=O)N[C@@H](CCC(N)=O)C(=O)N[C@@H](CC(C)C)C(N)=O (Ac-LKKENYDLRSKAKMLRDHIAQL-NH2; lactam 3-7, 13-17) | 0.33 frac |  |  |  | 
2 |  |  | CC[C@H](C)[C@H](NC(=O)[C@H](Cc1c[nH]cn1)NC(=O)[C@@H]1CC(=O)NCCCC[C@H](NC(=O)[C@H](C)NC(=O)[C@H](CCCCN)NC(=O)[C@H](CO)NC(=O)[C@H](CCCNC(=N)N)NC(=O)[C@H](CC(C)C)NC(=O)[C@@H]2CC(=O)NCCCC[C@H](NC(=O)[C@H](CCCNC(=N)N)NC(=O)[C@H](CC(C)C)NC(C)=O)C(=O)N[C@@H](CCC(=O)O)C(=O)N[C@@H]([C@@H](C)CC)C(=O)N[C@@H](Cc3ccc(O)cc3)C(=O)N2)C(=O)N[C@@H](CCSC)C(=O)N[C@@H](CC(C)C)C(=O)N[C@@H](CCCNC(=N)N)C(=O)N1)C(=O)N[C@@H](C)C(=O)N[C@@H](CCC(N)=O)C(=O)N[C@@H](CC(C)C)C(N)=O (Ac-LRKEIYDLRSKAKMLRDHIAQL-NH2; lactam 3-7, 13-17) | 0.34 frac |  |  |  | 
3 | 0.90 | 0.40 | CC[C@H](C)[C@H](NC(=O)[C@H](Cc1c[nH]cn1)NC(=O)[C@@H]1CC(=O)NCCCC[C@H](NC(=O)[C@H](C)NC(=O)[C@H](CCCCN)NC(=O)[C@H](CO)NC(=O)[C@H](CCCNC(=N)N)NC(=O)[C@H](CC2CCCCC2)NC(=O)[C@@H]2CC(=O)NCCCC[C@H](NC(=O)[C@H](CCCCN)NC(=O)[C@H](CC(C)C)NC(C)=O)C(=O)N[C@@H](CCC(=O)O)C(=O)N[C@@H]([C@@H](C)CC)C(=O)N[C@@H](Cc3ccc(O)cc3)C(=O)N2)C(=O)N[C@@H](CCSC)C(=O)N[C@@H](CC(C)C)C(=O)N[C@@H](CCCNC(=N)N)C(=O)N1)C(=O)N[C@@H](C)C(=O)N[C@@H](CCC(N)=O)C(=O)N[C@@H](CC(C)C)C(N)=O [compound 17] (Ac-LKKEIYD[Cha]RSKAKMLRDHIAQL-NH2; lactam 3-7, 13-17) |  | none of the peptides form a stable interaction with cJun | 0.91 | 0.42 | 
4 | 1.00 | 0.52 | CC[C@H](C)[C@@H]1NC(=O)[C@H](Cc2c[nH]cn2)NC(=O)[C@@H](NC(=O)[C@H](CCCNC(=N)N)NC(=O)[C@H](CC(C)C)NC(=O)[C@@H]2CC(=O)NCCCC[C@H](NC(=O)[C@H](CCCNC(=N)N)NC(=O)[C@H](CC(C)C)NC(=O)[C@@H]3CC(=O)NCCCC[C@H](NC(=O)[C@H](CCCNC(=N)N)NC(=O)[C@H](CC4CCCCC4)NC(C)=O)C(=O)N[C@@H](CCC(=O)O)C(=O)N[C@@H]([C@@H](C)CC)C(=O)N[C@@H](Cc4ccc(O)cc4)C(=O)N3)C(=O)N[C@@H](CCCCN)C(=O)N[C@@H](C)C(=O)N[C@@H](CC(N)=O)C(=O)N2)CCCCNC(=O)C[C@@H](C(=O)N[C@@H](CC2CCCCC2)C(N)=O)NC(=O)[C@H](C)NC1=O [compound 24, Ac-cyclo-(3,7; 10,14; 17,21)-ChaR[KEIYD]LR[KKAND]LR[KHIAD]Cha-NH2] (Ac-[Cha]RKEIYDLRKKANDLRKHIAD[Cha]-NH2; lactam 3-7, 10-14, 17-21) |  | none of the peptides form a stable interaction with cJun | 1.08 | 0.69 | dimer exchange on mixing cFos-cFos with cJun-peptide (cFos [3]): dimer exchange did occur; also recorded: dimer exchange has occurred; dimer exchange on mixing cJun-cJun with cFos-peptide (cFos [3]): no change in binding partner for peptide had occurred; also recorded: no change has occurred; stability in human serum (Serum stability): resistant to proteolytic degradation in serum; also recorded: fairly stable in human serum over 4 h; also recorded: much more stable in human serum at 37° than the same peptide lacking the constraints
5 |  |  | Ac-ASTDTLQAETDQLEDEKYALQTEIANLLKEKEKLGAP-NH2 [cFos] |  |  | 0.59 | 0.20 | 

Row | Compound | Peptide-cFos Ɵ222/208 (20ºC) (cFos [1]) | Peptide-cFos Fraction helical (ƒH) (cFos [1]) | helicity (circular dichroism) | interaction with cJun (in words) (cJun) | Homotypic Ɵ222/208 (20ºC) [2] | Fraction helical (ƒH), homotypic ([2]; 20°C, 150 µM, pH 7) | further results
6 | Ac-ASAAELEERAKTLKAEIYELRSKANMLREHIAQLGAP-NH2 [JunWCANDI, reference compound] | 0.97 | 0.42 |  |  | 0.79 | 0.19 | TΔS [ΔH – ΔG] (cFos [4]; calculated according to TΔS = ΔH−ΔG): -6.9 kcal/mol; ΔH (cFos [4]; pH 7): -14.8 kcal/mol; helicity of peptide in isolation ([2]; from CD spectra, 20°C, 150 µM, pH 7): 19%
